Patent US20230391772A1, “METHODS AND COMPOSITIONS FOR TARGETED PROTEIN DEGRADATION” (Ranok Therapeutics (Hangzhou) Co. Ltd., priority 2020, published 2023)

How the values were obtained:
[1] = system: NCI-H358 human non-small cell lung cancer; assay: NCI-H358 CCK-8 proliferation assay; type: cell-based; settings: NCI-H358 cells, 72 hr
Procedure: The following cancer cell lines were employed: BT-474 human breast carcinoma (ATCC, #HTB-20); MIA PaCa-2 human pancreatic carcinoma [2 copies KRAS(G12C)](ATCC, #CRL-1420); NCI-H23 human non-small cell lung cancer [1 copy KRAS(G12C)](ATCC, #CRL-5800); NCI-H358 human non-small cell lung cancer [1 copy KRAS(G12C)](ATCC, #CRL-5807); LU65A human lung carcinoma (Pharmaron, Beijing, China). Cell lines were cultured essentially according to ATCC and Pharmaron recommendations.
Cancer Cell Line Proliferation (CCK-8) Assays
3-fold serial dilutions of each test compound were prepared ranging from 20 μM to 1.02 nM.
% Inhibition=100−(D−B)/(S−B)*100%. • S: Absorbance of cells treated with DMSO • D: Absorbance of compound-treated cells • B: Absorbance of medium with DMSO without cells

HSP90a protein = target: T1, HSP90a protein (Homo sapiens, UniProt P07900); assay: HSP90α-binding fluorescent polarization (FP) assay, BODIPY-labeled RNK04010 probe; settings: FP competition with RNK04010 (BODIPY-labeled), 5 nM, 300 min at 25° C.
T1 construct: purchased BPS Bioscience 50298
Summary of the method: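 Binding was scored by fluorescence polarization after adding N-terminal HSP90a to wells holding probe and compound, with compound tested from 20 μM to 5.2 nM. Probe-dependent times at 25° C were 120 min for FITC-geldanamycin and 300 min for RNK04010-BODIPY, both at 5 nM final.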

| EC50 [1] | IC50 (HSP90a protein) | SMILES |
| --- | --- | --- |
| > 1000 nM | > 1000 nM | C=CC(=O)N1CCN(c2nc(NCCC(=O)N3CCN(Cc4ccc5c(c4)CN(C(=O)c4ccc(O)cc4O)C5)CC3)nc3c2CCN(c2cc(O)cc4ccccc24)C3)CC1 [Compound 86, 1-(4-(2-((3-(4-((2-(2,4-dihydroxybenzoyl)isoindolin-5-yl)methyl)piperazin-1-yl)-3-oxopropyl)amino)-7-(3-hydroxynaphthalen-1-yl)-5,6,7,8-tetrahydropyrido[3,4-d]pyrimidin-4-yl)piperazin-1-yl)prop-2-en-1-one, trifluoroacetic acid] |
| > 1000 nM | 100 to 1000 nM | CCc1cc(C(=O)N2Cc3ccc(CN4CCN(C(=O)CCNc5nc6c(c(N7CCN(C(C)=O)CC7)n5)CCN(c5cc(O)cc7ccccc57)C6)CC4)cc3C2)c(O)cc1O [Compound 67, 3-((4-(4-acetylpiperazin-1-yl)-7-(3-hydroxynaphthalen-1-yl)-5,6,7,8-tetrahydropyrido[3,4-d]pyrimidin-2-yl)amino)-1-(4-((2-(5-ethyl-2,4-dihydroxybenzoyl)isoindolin-5-yl)methyl)piperazin-1-yl)propan-1-one, trifluoroacetic acid] |
| > 1000 nM | > 1000 nM | C=CC(=O)N1CCN(c2nc(NCCC(=O)NCCOCCOc3ccc(-n4c(O)nnc4-c4cc(CC)c(O)cc4O)cc3)nc3c2CCN(c2cc(O)cc4ccccc24)C3)CC1 [Compound 6, 3-((4-(4-acryloylpiperazin-1-yl)-7-(3-hydroxynaphthalen-1-yl)-5,6,7,8-tetrahydropyrido[3,4-d]pyrimidin-2-yl)amino)-N-(2-(2-(4-(3-(5-ethyl-2,4-dihydroxyphenyl)-5-hydroxy-4H-1,2,4-triazol-4-yl)phenoxy)ethoxy)ethyl)propanamide, trifluoroacetic acid] |
| > 1000 nM | > 1000 nM | CCC(=O)N1CCN(c2nc(NCCC(=O)NCc3ccc(-n4c(O)nnc4-c4ccc(O)cc4O)cc3)nc3c2CCN(c2cc(O)cc4ccccc24)C3)CC1 [Compound 31, N-(4-(3-(2,4-dihydroxyphenyl)-5-hydroxy-4H-1,2,4-triazol-4-yl)benzyl)-3-((7-(3-hydroxynaphthalen-1-yl)-4-(4-propionylpiperazin-1-yl)-5,6,7,8-tetrahydropyrido[3,4-d]pyrimidin-2-yl)amino)propanamide, trifluoroacetic acid] |
| > 1000 nM | 100 to 1000 nM | CC(=O)N1CCN(c2nc(NCCC(=O)NCCOCCOc3ccc(-n4c(O)nnc4-c4cc(C(C)C)c(O)cc4O)cc3)nc3c2CCN(c2cc(O)cc4ccccc24)C3)CC1 [Compound 70, 3-((4-(4-acetylpiperazin-1-yl)-7-(3-hydroxynaphthalen-1-yl)-5,6,7,8-tetrahydropyrido[3,4-d]pyrimidin-2-yl)amino)-N-(2-(2-(4-(3-(2,4-dihydroxy-5-isopropylphenyl)-5-hydroxy-4H-1,2,4-triazol-4-yl)phenoxy)ethoxy)ethyl)propanamide, trifluoroacetic acid] |
| > 1000 nM | 100 to 1000 nM | CC(=O)N1CCN(c2nc(NCCC(=O)N3CCC(CN4CCC(Cc5ccc(-n6c(O)nnc6-c6cc(C(C)C)c(O)cc6O)cc5)CC4)CC3)nc3c2CCN(c2cc(O)cc4ccccc24)C3)CC1 [Compound 29, 3-((4-(4-acetylpiperazin-1-yl)-7-(3-hydroxynaphthalen-1-yl)-5,6,7,8-tetrahydropyrido[3,4-d]pyrimidin-2-yl)amino)-1-(4-((4-(4-(3-(2,4-dihydroxy-5-isopropylphenyl)-5-hydroxy-4H-1,2,4-triazol-4-yl)benzyl)piperidin-1-yl)methyl)piperidin-1-yl)propan-1-one, trifluoroacetic acid] |
| 100 to 1000 nM | < 100 nM | C=C(F)C(=O)N1CCN(c2nc(N3CCC(CN4CCN(Cc5ccc(-n6c(O)nnc6-c6cc(C(C)C)c(O)cc6O)cc5)CC4)CC3)nc3c2CCN(c2cccc4cccc(Cl)c24)C3)C[C@@H]1CC#N [Compound 129, (S)-2-(4-(7-(8-chloronaphthalen-1-yl)-2-(4-((4-(4-(3-(2,4-dihydroxy-5-isopropylphenyl)-5-hydroxy-4H-1,2,4-triazol-4-yl)benzyl)piperazin-1-yl)methyl)piperidin-1-yl)-5,6,7,8-tetrahydropyrido[3,4-d]pyrimidin-4-yl)-1-(2-fluoroacryloyl)piperazin-2-yl)acetonitrile] |
| > 1000 nM | 100 to 1000 nM | C=CC(=O)N1CCN(c2nc(NCCC(=O)N3CCN(Cc4ccc5c(c4)CN(C(=O)c4cc(C(C)C)c(O)cc4O)C5)CC3)nc3c2CCN(c2cc(O)cc4ccccc24)C3)CC1 [Compound 58, 1-(4-(2-((3-(4-((2-(2,4-dihydroxy-5-isopropylbenzoyl)isoindolin-5-yl)methyl)piperazin-1-yl)-3-oxopropyl)amino)-7-(3-hydroxynaphthalen-1-yl)-5,6,7,8-tetrahydropyrido[3,4-d]pyrimidin-4-yl)piperazin-1-yl)prop-2-en-1-one] |
| > 1000 nM | > 1000 nM | C=CC(=O)N1CCN(c2nc(NCCC(=O)N3CCC(CN4CCN(Cc5ccc(-n6c(O)nnc6-c6ccc(O)cc6O)cc5)CC4)CC3)nc3c2CCN(c2cc(O)cc4ccccc24)C3)CC1 [Compound 13, 1-(4-(2-((3-(4-((4-(4-(3-(2,4-dihydroxyphenyl)-5-hydroxy-4H-1,2,4-triazol-4-yl)benzyl)piperazin-1-yl)methyl)piperidin-1-yl)-3-oxopropyl)amino)-7-(3-hydroxynaphthalen-1-yl)-5,6,7,8-tetrahydropyrido[3,4-d]pyrimidin-4-yl)piperazin-1-yl)prop-2-en-1-one, trifluoroacetic acid] |
| > 1000 nM | < 100 nM | CC(=O)N1CCN(c2nc(NCCC(=O)NCCc3ccc(-n4c(O)nnc4-c4cc(C(C)C)c(O)cc4O)cc3)nc3c2CCN(c2cc(O)cc4ccccc24)C3)CC1 [Compound 22, 3-((4-(4-acetylpiperazin-1-yl)-7-(3-hydroxynaphthalen-1-yl)-5,6,7,8-tetrahydropyrido[3,4-d]pyrimidin-2-yl)amino)-N-(4-(3-(2,4-dihydroxy-5-isopropylphenyl)-5-hydroxy-4H-1,2,4-triazol-4-yl)phenethyl)propanamide, trifluoroacetic acid] |
| > 1000 nM | > 1000 nM | C=CC(=O)N1CCN(c2nc(NCCC(=O)NCc3ccc(-n4c(O)nnc4-c4cc(C(C)C)c(O)cc4O)cc3)nc3c2CCN(c2cccc4ccccc24)C3)C[C@H]1CC#N [Compound 91, (R)-3-((4-(4-acryloyl-3-(cyanomethyl)piperazin-1-yl)-7-(naphthalen-1-yl)-5,6,7,8-tetrahydropyrido[3,4-d]pyrimidin-2-yl)amino)-N-(4-(3-(2,4-dihydroxy-5-isopropylphenyl)-5-hydroxy-4H-1,2,4-triazol-4-yl)benzyl)propanamide, trifluoroacetic acid] |
| > 1000 nM | > 1000 nM | C=CC(=O)N1CCN(c2nc(NCCC(=O)NCc3ccc(-n4c(O)nnc4-c4cc(CCC)c(O)cc4O)cc3)nc3c2CCN(c2cccc4cccc(Cl)c24)C3)C[C@H]1CC#N [Compound 89, (R)-3-((4-(4-acryloyl-3-(cyanomethyl)piperazin-1-yl)-7-(8-chloronaphthalen-1-yl)-5,6,7,8-tetrahydropyrido[3,4-d]pyrimidin-2-yl)amino)-N-(4-(3-(2,4-dihydroxy-5-propylphenyl)-5-hydroxy-4H-1,2,4-triazol-4-yl)benzyl)propenamide] |
| > 1000 nM | > 1000 nM | C=CC(=O)N1CCN(c2nc(NCCC(=O)N3CCN(Cc4ccc5c(c4)CN(C(=O)c4cc(CC)c(O)cc4O)C5)CC3)nc3c2CCN(c2cc(O)cc4ccccc24)C3)CC1 [Compound 68, 1-(4-(2-((3-(4-((2-(5-ethyl-2,4-dihydroxybenzoyl)isoindolin-5-yl)methyl)piperazin-1-yl)-3-oxopropyl)amino)-7-(3-hydroxynaphthalen-1-yl)-5,6,7,8-tetrahydropyrido[3,4-d]pyrimidin-4-yl)piperazin-1-yl)prop-2-en-1-one, trifluoroacetic acid] |
| > 1000 nM | 100 to 1000 nM | CCC(=O)N1CCN(c2nc(NCCC(=O)N3CCN(Cc4ccc5c(c4)CN(C(=O)c4cc(C(C)C)c(O)cc4O)C5)CC3)nc3c2CCN(c2cc(O)cc4ccccc24)C3)CC1 [Compound 57, 1-(4-((2-(2,4-dihydroxy-5-isopropylbenzoyl)isoindolin-5-yl)methyl)piperazin-1-yl)-3-((7-(3-hydroxynaphthalen-1-yl)-4-(4-propionylpiperazin-1-yl)-5,6,7,8-tetrahydropyrido[3,4-d]pyrimidin-2-yl)amino)propan-1-one, trifluoroacetic acid] |

| SMILES | EC50 [1] | IC50 (HSP90a protein) |
| --- | --- | --- |
| C=CC(=O)N1CCN(c2nc(NCCC(=O)NCCOCCOCCN[C@@H](C)C(=O)N[C@H](C(=O)N3CCC[C@H]3C(=O)Nc3snnc3-c3ccccc3)C3CCCCC3)nc3c2CCN(c2cc(O)cc4ccccc24)C3)CC1 [Compound 20, (S)-1-((2S,5S)-18-((4-(4-acryloylpiperazin-1-yl)-7-(3-hydroxynaphthalen-1-yl)-5,6,7,8-tetrahydropyrido[3,4-d]pyrimidin-2-yl)amino)-2-cyclohexyl-5-methyl-4,16-dioxo-9,12-dioxa-3,6,15-triazaoctadecanoyl)-N-(4-phenyl-1,2,3-thiadiazol-5-yl)pyrrolidine-2-carboxamide, trifluoroacetic acid] | > 1000 nM | > 1000 nM |
